This note sets out measurements from patent US20250034216A1, “STEREOSELECTIVE COVALENT LIGANDS FOR ONCOGENIC AND IMMUNOLOGICAL PROTEINS” (The Scripps Research Institute, priority 2021, published 2025).

Common to all, as to test: IA-DTB cysteine engagement
Holding throughout (type): binding
What all share (settings): 22Rv1 cells, 20 μM probe, 1 h, relative to DMSO

In one experiment the target is T1, SRC_C280 (Homo sapiens, UniProt P12931).
T1 construct: endogenous in cells; host or cells: 22Rv1
T1 sequence (P12931 whole entry): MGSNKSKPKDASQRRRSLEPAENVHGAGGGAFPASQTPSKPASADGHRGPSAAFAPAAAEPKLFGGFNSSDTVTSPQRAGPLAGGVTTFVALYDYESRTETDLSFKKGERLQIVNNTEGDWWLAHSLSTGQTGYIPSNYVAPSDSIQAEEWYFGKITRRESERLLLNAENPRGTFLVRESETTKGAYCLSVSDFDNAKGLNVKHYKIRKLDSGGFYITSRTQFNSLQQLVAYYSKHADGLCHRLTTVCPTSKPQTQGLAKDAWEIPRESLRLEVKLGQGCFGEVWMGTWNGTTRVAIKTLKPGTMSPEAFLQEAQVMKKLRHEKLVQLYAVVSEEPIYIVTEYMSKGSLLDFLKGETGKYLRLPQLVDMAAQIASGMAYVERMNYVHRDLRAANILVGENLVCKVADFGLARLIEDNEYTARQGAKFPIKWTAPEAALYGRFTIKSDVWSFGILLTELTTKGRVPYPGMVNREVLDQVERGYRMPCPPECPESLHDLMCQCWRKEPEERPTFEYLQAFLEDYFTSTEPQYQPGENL
The procedure, abridged: (§1)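 In-situ probe treatment of cells; lysate 2 mg/mL, IA-DTB 1 h RT; MeOH/CHCl3 precipitation, DTT/iodoacetamide, trypsin; streptavidin enrichment; TMT labeling, high-pH fractionation. Ratio = TMT reporter intensity / mean DMSO channels, median-normalized.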

In another experiment the target is T2, DDX39B_C87 (Homo sapiens, UniProt Q13838).
T2 construct: endogenous in cells; host or cells: 22Rv1
T2 sequence (Q13838 whole entry): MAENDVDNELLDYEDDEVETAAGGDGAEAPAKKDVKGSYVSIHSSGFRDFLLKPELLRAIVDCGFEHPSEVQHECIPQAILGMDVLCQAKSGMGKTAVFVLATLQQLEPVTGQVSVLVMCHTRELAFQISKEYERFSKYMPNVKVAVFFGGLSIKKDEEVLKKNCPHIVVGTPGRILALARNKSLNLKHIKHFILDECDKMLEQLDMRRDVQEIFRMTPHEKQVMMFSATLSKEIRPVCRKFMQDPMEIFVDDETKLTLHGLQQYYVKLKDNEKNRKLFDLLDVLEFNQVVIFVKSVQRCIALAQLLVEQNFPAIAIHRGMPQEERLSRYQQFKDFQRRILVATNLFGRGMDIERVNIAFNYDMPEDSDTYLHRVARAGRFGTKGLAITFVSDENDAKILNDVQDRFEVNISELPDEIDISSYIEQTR
The method in brief: as §1

A further experiment has as its target T3, SYNE2_C2994 (Homo sapiens, UniProt Q8WXH0).
T3 construct: endogenous in cells; host or cells: 22Rv1
The procedure, abridged:
as §1

For a further experiment, the target named is T4, NT5DC2_C504 (Homo sapiens, UniProt Q9H857).
T4 construct: endogenous in cells; host or cells: 22Rv1
T4 sequence (Q9H857 1-520): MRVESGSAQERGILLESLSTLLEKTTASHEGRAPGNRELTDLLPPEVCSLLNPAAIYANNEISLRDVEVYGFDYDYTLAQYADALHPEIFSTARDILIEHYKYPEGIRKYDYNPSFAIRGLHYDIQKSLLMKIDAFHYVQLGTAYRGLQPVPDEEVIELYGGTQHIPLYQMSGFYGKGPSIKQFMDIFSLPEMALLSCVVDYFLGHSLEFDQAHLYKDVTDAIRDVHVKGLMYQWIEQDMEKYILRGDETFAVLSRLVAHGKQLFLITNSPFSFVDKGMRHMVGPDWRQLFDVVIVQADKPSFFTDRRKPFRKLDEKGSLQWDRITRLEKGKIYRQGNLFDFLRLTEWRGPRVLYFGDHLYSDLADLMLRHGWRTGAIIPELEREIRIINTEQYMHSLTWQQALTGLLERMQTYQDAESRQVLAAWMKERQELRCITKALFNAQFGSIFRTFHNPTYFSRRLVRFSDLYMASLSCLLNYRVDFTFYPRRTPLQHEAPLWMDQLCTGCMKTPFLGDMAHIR
The procedure, abridged: as §1

The next experiment deals with T5, DCAF1_C1113 (Homo sapiens, UniProt Q9Y4B6).
T5 construct: endogenous in cells; host or cells: 22Rv1
T5 sequence (Q9Y4B6 whole entry): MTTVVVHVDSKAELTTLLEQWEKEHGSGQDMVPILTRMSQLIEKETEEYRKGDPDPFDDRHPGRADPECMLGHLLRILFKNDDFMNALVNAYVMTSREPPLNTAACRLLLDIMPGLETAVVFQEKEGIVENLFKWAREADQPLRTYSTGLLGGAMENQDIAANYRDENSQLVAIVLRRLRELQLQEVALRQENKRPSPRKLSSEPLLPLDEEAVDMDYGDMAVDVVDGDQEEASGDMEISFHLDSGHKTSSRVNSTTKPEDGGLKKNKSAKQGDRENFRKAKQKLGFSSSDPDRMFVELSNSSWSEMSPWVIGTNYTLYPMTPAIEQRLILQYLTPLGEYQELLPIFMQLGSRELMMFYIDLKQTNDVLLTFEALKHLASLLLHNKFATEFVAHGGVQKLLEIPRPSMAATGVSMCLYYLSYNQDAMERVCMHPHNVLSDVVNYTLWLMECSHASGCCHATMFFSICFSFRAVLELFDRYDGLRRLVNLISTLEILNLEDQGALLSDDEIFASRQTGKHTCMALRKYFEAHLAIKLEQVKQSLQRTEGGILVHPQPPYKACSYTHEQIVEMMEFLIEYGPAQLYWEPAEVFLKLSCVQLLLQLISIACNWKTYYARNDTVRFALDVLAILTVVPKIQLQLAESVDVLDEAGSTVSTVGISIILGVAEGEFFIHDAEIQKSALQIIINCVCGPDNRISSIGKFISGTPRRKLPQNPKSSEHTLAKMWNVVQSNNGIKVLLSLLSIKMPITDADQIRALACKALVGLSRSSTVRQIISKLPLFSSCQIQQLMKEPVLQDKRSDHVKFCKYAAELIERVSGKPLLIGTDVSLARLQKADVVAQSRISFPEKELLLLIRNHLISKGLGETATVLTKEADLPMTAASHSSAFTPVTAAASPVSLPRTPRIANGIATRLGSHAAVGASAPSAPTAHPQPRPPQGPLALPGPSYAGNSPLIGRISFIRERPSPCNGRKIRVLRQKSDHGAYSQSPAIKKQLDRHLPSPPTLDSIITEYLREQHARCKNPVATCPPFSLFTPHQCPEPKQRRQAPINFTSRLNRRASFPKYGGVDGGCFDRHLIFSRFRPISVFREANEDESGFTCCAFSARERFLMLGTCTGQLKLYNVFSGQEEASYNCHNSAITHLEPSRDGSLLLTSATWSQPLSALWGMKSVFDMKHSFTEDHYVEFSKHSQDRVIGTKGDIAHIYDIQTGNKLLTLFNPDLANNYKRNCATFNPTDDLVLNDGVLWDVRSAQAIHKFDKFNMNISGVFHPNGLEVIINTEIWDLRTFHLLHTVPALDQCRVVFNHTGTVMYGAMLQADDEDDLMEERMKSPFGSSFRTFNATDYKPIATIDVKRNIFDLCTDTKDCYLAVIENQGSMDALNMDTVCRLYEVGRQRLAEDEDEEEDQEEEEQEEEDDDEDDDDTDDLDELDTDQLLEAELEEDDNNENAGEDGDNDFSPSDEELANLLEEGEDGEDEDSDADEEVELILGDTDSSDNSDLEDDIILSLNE
The procedure, abridged:
as §1

For the compound `C=CC(=O)N1C[C@H](c2ccc(Br)cc2)[C@@H]1C(=O)Nc1cccc2cccnc12` [MY-1B, (2R,3S)-1-acryloyl-3-(4-bromophenyl)-N-(quinolin-8-yl)azetidine-2-carboxamide], the “% engagement SRC_C280” value on SRC_C280 came out at 92.25%. For the same compound, at DDX39B_C87, the “% engagement DDX39B_C87” value came to 37%. On SYNE2_C2994, the “% engagement SYNE2_C2994” value was 75.75%. On NT5DC2_C504, the “% engagement NT5DC2_C504” value is 75%. Further, at DCAF1_C1113, the “% engagement DCAF1_C1113” value is 68.5%.

In the case of `C=CC(=O)N1C[C@H](c2ccc(Br)cc2)[C@H]1C(=O)Nc1cccc2cccnc12` [MY-3B, (2S,3S)-1-acryloyl-3-(4-bromophenyl)-N-(quinolin-8-yl)azetidine-2-carboxamide], the “% engagement SRC_C280” value at SRC_C280 was determined as 64%. The “% engagement DDX39B_C87” value on DDX39B_C87 amounted to 67.5%. The “% engagement SYNE2_C2994” value on SYNE2_C2994 was determined as 37.5%. In addition, the “% engagement NT5DC2_C504” value on NT5DC2_C504 was 59%. In addition, the “% engagement DCAF1_C1113” value on DCAF1_C1113 is 26.5%.

As for `C=CC(=O)N1C[C@H](c2ccc(Br)cc2)[C@H]1C(=O)Nc1cccc2cccnc12` [MY-3A, (2S,3S)-1-acryloyl-3-(4-bromophenyl)-N-(quinolin-8-yl)azetidine-2-carboxamide], the “% engagement SRC_C280” value on SRC_C280 was 2%. Also, the “% engagement DDX39B_C87” value at DDX39B_C87 is recorded as 23.5%. In addition, the “% engagement SYNE2_C2994” value at SYNE2_C2994 amounted to 11.25%. The “% engagement NT5DC2_C504” value at NT5DC2_C504 is listed as 54.5%. In addition, at DCAF1_C1113, the “% engagement DCAF1_C1113” value is given as −1.5%.

As to `C=CC(=O)N1C[C@@H](c2ccc(Br)cc2)[C@H]1C(=O)Nc1cccc2cccnc12` [MY-1A, (2S,3R)-1-acryloyl-3-(4-bromophenyl)-N-(quinolin-8-yl)azetidine-2-carboxamide], the “% engagement SRC_C280” value on SRC_C280 was found to be 17.75%. For the same compound, the “% engagement DDX39B_C87” value on DDX39B_C87 is recorded as 44.5%. For the same compound, the “% engagement SYNE2_C2994” value at SYNE2_C2994 amounted to 29.5%. In addition, the “% engagement NT5DC2_C504” value at NT5DC2_C504 is reported as 85.5%. For the same compound, the “% engagement DCAF1_C1113” value on DCAF1_C1113 is listed as −18%.
